# According to ChEMBL document CHEMBL1201862, “PubChem BioAssay data set” (2004):
#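 Each compound was tested at five concentrations against cells in 96-well plates for 48 hours. GI50 marks 50% less growth.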 Active and inactive are the calls of the source. No stated cut-off is given here; in the data, active = GI50 up to about 1.1 µM and inactive = higher.
# Assays:
# Test in all cases: NCI-60 cell line screen, 48 h
# 786-0 = tested on: 786-0
# BT-549 = tested on: BT-549
# M14 = tested on: M14
# MDA-N = tested on: MDA-N
# TK-10 = tested on: TK-10
# HOP-18 = tested on: HOP-18
# M19-MEL = tested on: M19-MEL
# LXFL 529 = tested on: LXFL 529
# RXF 631 = tested on: RXF 631
Structure (SMILES),GI50 (786-0),GI50 (BT-549),GI50 (M14),GI50 (MDA-N),GI50 (TK-10),GI50 (HOP-18),GI50 (M19-MEL),GI50 (LXFL 529),GI50 (RXF 631)
COc1ccc(C2=NN(C(=O)c3ccc(Cl)cc3)C(O)(c3cc(F)c(Cl)cc3Cl)C2)cc1 (stereo not given),> 100 µM (inactive),> 100 µM (inactive),44.8 µM (inactive),22.4 µM (inactive),> 100 µM (inactive),–,–,–,–
COc1ccc(C(=C2C=CC=C2)c2ccc(OC)cc2)cc1,–,> 100 µM (inactive),61.1 µM (inactive),37 µM (inactive),50.4 µM (inactive),–,–,–,–
C#CCNC(=O)CCC(N)C(=O)O (stereo not given),–,–,–,–,–,> 100 µM (inactive),> 100 µM (inactive),–,–
CCOC(=O)CN(Cn1cncn1)Cn1cncn1,58.6 µM (inactive),–,> 10 µM (inactive),–,50.7 µM (inactive),32.8 µM (inactive),38.7 µM (inactive),40.2 µM (inactive),–
Nc1ccn(C2OC(CO)C(O)C2O)c(=O)c1 (stereo not given),–,–,–,–,–,295 µM (inactive),–,–,–
CC[N+]1(C)CCC(O)(c2ccccc2)C(C(=O)c2ccccc2)C1 (stereo not given),5.89 µM (inactive),9.02 µM (inactive),9.71 µM (inactive),–,15.7 µM (inactive),13.7 µM (inactive),18.4 µM (inactive),10 µM (inactive),–
Cc1cc(O)nc(NN2C(Cl)C(=O)C2c2ccco2)n1 (stereo not given),–,–,33.8 µM (inactive),–,61.2 µM (inactive),21.1 µM (inactive),39.5 µM (inactive),29.3 µM (inactive),–
CC1[C@@]2(O[C@@H]3C=C4C5CCC6Cc7nc8c(nc7C[C@@]6(C)C5C[C@H](O)[C@@]4(C)[C@]13O)CC1CCc3c(cc4c5c3C(O)C[C@H]5[C@@H](C)C3(O4)OC(C)(C)CC3O)[C@]1(C)C8)O[C@@](C)(CO)C[C@@H]2O (stereo not given in full),–,–,–,–,–,1.92 µM (inactive),2.28 µM (inactive),–,–
O=C(Nc1c(Cl)cc([N+](=O)[O-])cc1Cl)/C(=N\Nc1cccc(Cl)c1)c1c(O)c2ccccc2oc1=O,> 100 µM (inactive),–,–,–,> 100 µM (inactive),–,> 100 µM (inactive),–,53.6 µM (inactive)
O=C(O)C(Br)Cc1ccc2c(c1)OCO2 (stereo not given),–,–,> 100 µM (inactive),–,–,–,69.2 µM (inactive),> 100 µM (inactive),–
CCOC(=O)C1(C(C)=O)OC(=O)c2cnccc21 (stereo not given),> 100 µM (inactive),> 100 µM (inactive),> 100 µM (inactive),> 100 µM (inactive),–,–,–,–,–
CCOC(=O)C1=C(C)N(c2ccc(Cl)cc2)C2(O)C=CC(Nc3ccc(Cl)cc3)=C3C(=O)N(c4ccccc4)C(=O)C312 (stereo not given),–,1.54 µM (inactive),3.13 µM (inactive),–,13.6 µM (inactive),–,–,–,–
Oc1[nH]c(Nc2cccc(Br)c2)nc2ncnc1-2,> 100 µM (inactive),82.8 µM (inactive),> 100 µM (inactive),> 100 µM (inactive),87.1 µM (inactive),–,–,–,–
C=CC(OC(=O)C(C)C)c1ccc(OC(=O)C(C)C)cc1 (stereo not given),4.69 µM (inactive),17.4 µM (inactive),7.67 µM (inactive),12.5 µM (inactive),–,–,–,–,–
COP(=O)(OC)C(Cc1c[nH]c2ccccc12)NC(=O)OCc1ccccc1 (stereo not given),–,–,> 100 µM (inactive),> 100 µM (inactive),> 100 µM (inactive),–,–,–,–
COc1cc(CNc2nc3c(NC(C)=O)cc(C(F)(F)F)cc3nc2-c2ccccc2)cc(OC)c1OC,–,–,–,–,> 100 µM (inactive),–,> 100 µM (inactive),> 100 µM (inactive),–
CC(=O)Nc1ccc(C(=O)N2N=C(C)/C(=C/c3ccc(O)cc3)C2=O)cc1,> 100 µM (inactive),–,–,–,> 100 µM (inactive),–,> 100 µM (inactive),–,–
COC1=C(C)C(=O)C2=C(C1=O)[C@@H]1[C@@H]3Cc4c(OC(=O)CO)c(C)c(OC)c(O)c4[C@H](CNC(=O)C(C)=O)N3[C@@H](C#N)[C@H](C2)N1C,–,–,–,–,–,0.0382 µM (active),< 0.0171 µM (active),–,–
CC1=Nc2nc(Cl)cn2C(=O)C1(Cl)Cl,–,–,> 10 µM (inactive),> 10 µM (inactive),> 10 µM (inactive),–,–,–,–
BrC(/C=N/Nc1nnc(-c2ccccc2)c(-c2ccccc2)n1)C(Br)c1ccccc1 (stereo not given),32 µM (inactive),–,21.6 µM (inactive),–,35.8 µM (inactive),–,36.1 µM (inactive),–,51.4 µM (inactive)
CC(=N/NC(=S)Nc1c(C)n(C)n(-c2ccccc2)c1=O)/C(C)=N\NC(=S)Nc1c(C)n(C)n(-c2ccccc2)c1=O,> 100 µM (inactive),> 100 µM (inactive),> 100 µM (inactive),–,> 100 µM (inactive),–,–,–,–
Oc1cc2cc(O)nc(O)c2c(O)n1,–,–,> 100 µM (inactive),–,> 100 µM (inactive),–,> 100 µM (inactive),> 100 µM (inactive),> 100 µM (inactive)
COc1ccc(-c2c3c(nc4[nH]c(=S)[nH]c(=S)c24)CCCC3)cc1OC,–,48.9 µM (inactive),28.6 µM (inactive),34.3 µM (inactive),17.6 µM (inactive),–,–,–,–
C[C@H](N)C(=O)N[C@@H]1[C@H]2C(=C(O)C[C@@H](O)[C@@H]2O)C(=O)O[C@@H]1C,–,–,–,–,–,76.9 µM (inactive),> 100 µM (inactive),–,–
O=C(O)c1c[nH]c2c(=O)[nH]cnc12,> 100 µM (inactive),–,> 100 µM (inactive),–,> 100 µM (inactive),> 100 µM (inactive),> 100 µM (inactive),> 100 µM (inactive),> 100 µM (inactive)
Cc1cccc(NC(N)=S)c1,–,–,> 100 µM (inactive),–,> 100 µM (inactive),–,> 100 µM (inactive),> 100 µM (inactive),> 100 µM (inactive)
COC(=O)C1=C(C)N2CCSC2(C)C(C(=O)OC)C1c1cccc(Cl)c1 (stereo not given),–,–,30.1 µM (inactive),–,41.9 µM (inactive),–,16 µM (inactive),20 µM (inactive),–
COc1ccc([C@@H]2ON(C)[C@H]3CN(C)C(=O)[C@@H]23)cc1,–,–,> 100 µM (inactive),> 100 µM (inactive),> 100 µM (inactive),–,–,–,–
CC1CC2C3CCC4=CC(=O)C=CC4(C)C3(F)C(O)CC2(C)C1(O)C(=O)COP(=O)(O)O (stereo not given),–,> 100 µM (inactive),> 100 µM (inactive),8.18 µM (inactive),> 100 µM (inactive),> 100 µM (inactive),> 100 µM (inactive),> 100 µM (inactive),–
